In patent publication US10793580B2, “Substituted pyrazoloazepin-8-ones and their use as phosphodiesterase inhibitors” (LEO Pharma A/S, priority 2016, dated 2020):

target: human PDE4D catalytic domain (Homo sapiens (Human), UniProt Q08499); assay: PDE4 Assay (TR-FRET, FAM-cAMP cleavage); format: biochemical; conditions: Table 16, Examples 277-296; read-out: PDE4 IC50 range
Outline: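 Readout is Tb-to-FAM time-resolved FRET after nanoparticle capture of AMP, the product of cleaving a cAMP/FAM-cAMP mixture by PDE4D catalytic domain (S380-L740) in the presence of titrated compound. Values are IC50 ranges in nM: concentration halving substrate cleavage relative to controls.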

human PDE4D catalytic domain, sequence (Q08499 380-740): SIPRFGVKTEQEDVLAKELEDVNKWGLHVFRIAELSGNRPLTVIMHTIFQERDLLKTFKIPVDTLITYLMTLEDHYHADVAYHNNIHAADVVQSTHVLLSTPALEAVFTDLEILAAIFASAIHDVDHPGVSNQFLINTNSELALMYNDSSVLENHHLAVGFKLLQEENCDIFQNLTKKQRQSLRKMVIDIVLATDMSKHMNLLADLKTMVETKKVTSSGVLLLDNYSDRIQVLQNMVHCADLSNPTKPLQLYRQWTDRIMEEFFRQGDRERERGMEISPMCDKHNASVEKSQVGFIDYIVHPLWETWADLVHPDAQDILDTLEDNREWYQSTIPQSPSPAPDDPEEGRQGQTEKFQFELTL

Question: Which IC50 does the source give for CCn1nc(C[C@@H](C)COC(=O)c2ccn(C)n2)c2c1C(=O)NCC1(CCOCC1)C2 [Example 278, [(2R)-3-(1-ethyl-8-oxo-spiro[6,7-dihydro-4H-pyrazolo[3,4-c]azepine-5,4′-tetrahydropyran]-3-yl)-2-methyl-propyl] 1-methylpyrazole-3-carboxylate] here?
Answer: The IC50 was less than 0.1 µM.

Question: CCn1nc(C[C@@H](C)COC(=O)c2cn(C)cn2)c2c1C(=O)NCC1(CCOCC1)C2 [Example 280, [(2R)-3-(1-ethyl-8-oxo-spiro[6,7-dihydro-4H-pyrazolo[3,4-c]azepine-5,4′-tetrahydropyran]-3-yl)-2-methyl-propyl] 1-methylimidazole-4-carboxylate] was tested. Which IC50 did it give?
Answer: Its IC50 is less than 0.1 µM.

same assay, conditions: Table 17, Examples 297-316; read-out: PDE4 IC50 range

Question: CCn1nc(CC(C)(C)COC(=O)c2ccn(C)n2)c2c1C(=O)NCC1(CCOCC1)C2 [Example 298, [3-(1-ethyl-8-oxo-spiro[6,7-dihydro-4H-pyrazolo[3,4-c]azepine-5,4′-tetrahydro-pyran]-3-yl)-2,2-dimethyl-propyl] 1-methylpyrazole-3-carboxylate] was tested. Which IC50 did it give?
Answer: Its IC50 is less than 0.1 µM.

Question: For CCn1nc(CC(C)(C)COC(=O)c2coc(C)n2)c2c1C(=O)NCC1(CCOCC1)C2 [Example 301, [3-(1-ethyl-8-oxo-spiro[6,7-dihydro-4H-pyrazolo[3,4-c]azepine-5,4′-tetrahydropyran]-3-yl)-2,2-dimethyl-propyl] 2-methyloxazole-4-carboxylate], which IC50 is on record?
Answer: The IC50 was less than 0.1 µM.

Question: For CCn1nc(CC(C)(C)COC(=O)C2CCN(C(=O)OC)CC2)c2c1C(=O)NCC1(CCOCC1)C2 [Example 315, [3-(1-ethyl-8-oxo-spiro[6,7-dihydro-4H-pyrazolo[3,4-c]azepine-5,4′-tetrahydro-pyran]-3-yl)-2,2-dimethyl-propyl] 1-methoxycarbonyl-peridine-4-carboxylate], which IC50 is on record?
Answer: Its IC50 is less than 0.1 µM.

same assay, conditions: human PDE4D catalytic domain (UniProt Q08499 [S380-L740]); 50% inhibition of substrate cleavage; read-out: PDE4 IC50 range

Question: How did the IC50 turn out when CCn1nc(CCCOC(=O)c2ccc(S(=O)(=O)C(C)C)cc2)c2c1C(=O)NCC1(CCOCC1)C2 [Example 93, 3-(1-ethyl-8-oxo-spiro[6,7-dihydro-4H-pyrazolo[3,4-c]azepine-5,4′-tetrahydropyran]-3-yl)propyl 4-isopropylsulfonylbenzoate] was run?
Answer: The IC50 was less than 0.1 µM.

Question: With CCn1nc(CCCOC(=O)c2cccc(Cl)c2OC)c2c1C(=O)NCC1(CCOCC1)C2 [Example 59, 3-(1-ethyl-8-oxo-spiro[6,7-dihydro-4H-pyrazolo[3,4-c]azepine-5,4′-tetrahydropyran]-3-yl)propyl 3-chloro-2-methoxy-benzoate] as the molecule, how does the IC50 read?
Answer: Its IC50 is less than 0.1 µM.

Question: Which IC50 does the source give for CCC(CC)C(=O)OCCCc1nn(CC)c2c1CC1(CCOCC1)CNC2=O [Example 6, 3-(1-ethyl-8-oxo-spiro[6,7-dihydro-4H-pyrazolo[3,4-c]azepine-5,4′-tetrahydropyran]-3-yl)propyl 2-ethylbutanoate] here?
Answer: The IC50 was less than 0.1 µM.

Question: CCn1nc(CCCOC(=O)c2ccc(C(=O)N3CCCC3)cc2)c2c1C(=O)NCC1(CCOCC1)C2 [Example 107, 3-(1-ethyl-8-oxo-spiro[6,7-dihydro-4H-pyrazolo[3,4-c]azepine-5,4′-tetrahydro-pyran]-3-yl)propyl 4-(pyrrolidine-1-carbonyl)benzoate] was tested. Which IC50 did it give?
Answer: The IC50 was less than 0.1 µM.

Question: Which IC50 does the source give for CCn1nc(CCCOC(=O)c2cc(OC)cc(C(F)(F)F)c2)c2c1C(=O)NCC1(CCOCC1)C2 [Example 82, 3-(1-ethyl-8-oxo-spiro[6,7-dihydro-4H-pyrazolo[3,4-c]azepine-5,4′-tetrahydropyran]-3-yl)propyl 3-methoxy-5-(trifluoromethyl)benzoate] here?
Answer: The IC50 was less than 0.1 µM.

Question: With CCn1nc(CCCOC(=O)c2cc(C)n(C)n2)c2c1C(=O)NCC1(CCOCC1)C2 [Example 249, 3-(1-ethyl-8-oxo-spiro[6,7-dihydro-4H-pyrazolo[3,4-c]azepine-5,4′-tetrahydro-pyran]-3-yl)propyl 1,5-dimethylpyrazole-3-carboxylate] as the molecule, how does the IC50 read?
Answer: The IC50 was less than 0.1 µM.

Question: Which IC50 does the source give for CCn1nc(C[C@@H](C)COC(=O)c2cccc(C)c2)c2c1C(=O)NCC1(CCOCC1)C2 [Example 142, [(2R)-3-(1-ethyl-8-oxo-spiro[6,7-dihydro-4H-pyrazolo[3,4-c]azepine-5,4′-tetrahydropyran]-3-yl)-2-methyl-propyl] 3-methylbenzoate] here?
Answer: Its IC50 is less than 0.1 µM.

Question: How did the IC50 turn out when CCc1nc(C(=O)OCCCc2nn(CC)c3c2CC2(CCOCC2)CNC3=O)co1 [Example 251, 3-(1-ethyl-8-oxo-spiro[6,7-dihydro-4H-pyrazolo[3,4-c]azepine-5,4′-tetrahydropyran]-3-yl)propyl 2-ethyloxazole-4-carboxylate] was run?
Answer: The IC50 was less than 0.1 µM.

Question: CCn1nc(CCCOC(=O)c2ccc(C)cc2)c2c1C(=O)NCC1(CCOCC1)C2 [Example 8, 3-(1-ethyl-8-oxo-spiro[6,7-dihydro-4H-pyrazolo[3,4-c]azepine-5,4′-tetrahydropyran]-3-yl)propyl 4-methylbenzoate] was tested. Which IC50 did it give?
Answer: Its IC50 is less than 0.1 µM.

Question: With CCn1nc(CC(C)(C)COC(=O)CCS(C)(=O)=O)c2c1C(=O)NCC1(CCOCC1)C2 [Example 199, [3-(1-ethyl-8-oxo-spiro[6,7-dihydro-4H-pyrazolo[3,4-c]azepine-5,4′-tetrahydropyran]-3-yl)-2,2-dimethyl-propyl] 3-methylsulfonylpropanoate] as the molecule, how does the IC50 read?
Answer: Its IC50 is less than 0.1 µM.

Question: CCn1nc(CCCOC(=O)c2cccc(C(=O)N3CCN(C)CC3)c2)c2c1C(=O)NCC1(CCOCC1)C2 [Example 119, 3-(1-ethyl-8-oxo-spiro[6,7-dihydro-4H-pyrazolo[3,4-c]azepine-5,4′-tetrahydropyran]-3-yl)propyl 3-(4-methylpiperazine-1-carbonyl)benzoate] was tested. Which IC50 did it give?
Answer: Its IC50 is less than 0.1 µM.

Question: How did the IC50 turn out when CCn1nc(C[C@@H](C)COC(=O)CCSC)c2c1C(=O)NCC1(CCOCC1)C2 [Example 139, [(2R)-3-(1-ethyl-8-oxo-spiro[6,7-dihydro-4H-pyrazolo[3,4-c]azepine-5,4′-tetrahydropyran]-3-yl)-2-methyl-propyl] 3-methylsulfanylpropanoate] was run?
Answer: Its IC50 is less than 0.1 µM.

Question: With CCn1nc(CCCOC(=O)c2cc(Cl)cc(C(F)(F)F)c2)c2c1C(=O)NCC1(CCOCC1)C2 [Example 90, 3-(1-ethyl-8-oxo-spiro[6,7-dihydro-4H-pyrazolo[3,4-c]azepine-5,4′-tetrahydro-pyran]-3-yl)propyl 3-chloro-5-(trifluoromethyl)benzoate] as the molecule, how does the IC50 read?
Answer: The IC50 was less than 0.1 µM.

Question: For CCn1nc(C[C@@H](C)COC(=O)c2cccc(C(=O)N3CCCC3)c2)c2c1C(=O)NCC1(CCOCC1)C2 [Example 181, [(2R)-3-(1-ethyl-8-oxo-spiro[6,7-dihydro-4H-pyrazolo[3,4-c]azepine-5,4′-tetrahydropyran]-3-yl)-2-methyl-propyl] 3-(pyrrolidine-1-carbonyl)benzoate], which IC50 is on record?
Answer: The IC50 was less than 0.1 µM.

Question: How did the IC50 turn out when CCn1nc(CC(C)(C)COC(=O)c2ccccc2F)c2c1C(=O)NCC1(CCOCC1)C2 [Example 193, [3-(1-ethyl-8-oxo-spiro[6,7-dihydro-4H-pyrazolo[3,4-c]azepine-5,4′-tetrahydropyran]-3-yl)-2,2-dimethyl-propyl] 2-fluorobenzoate] was run?
Answer: Its IC50 is less than 0.1 µM.

Question: How did the IC50 turn out when CCn1nc(CCCOC(=O)c2ccc(F)c(C#N)c2)c2c1C(=O)NCC1(CCOCC1)C2 [Example 30, 3-(1-ethyl-8-oxo-spiro[6,7-dihydro-4H-pyrazolo[3,4-c]azepine-5,4′-tetrahydropyran]-3-yl)propyl 3-cyano-4-fluoro-benzoate] was run?
Answer: The IC50 was less than 0.1 µM.

Question: How did the IC50 turn out when CCn1nc(CCCOC(=O)c2ccc(S(=O)(=O)N3CCCC3)cc2)c2c1C(=O)NCC1(CCOCC1)C2 [Example 96, 3-(1-ethyl-8-oxo-spiro[6,7-dihydro-4H-pyrazolo[3,4-c]azepine-5,4′-tetrahydro-pyran]-3-yl)propyl 4-pyrro-lidin-1-ylsulfonylbenzoate] was run?
Answer: The IC50 was less than 0.1 µM.

Question: How did the IC50 turn out when CCn1nc(CCCOC(=O)c2cc(Cl)ccc2C)c2c1C(=O)NCC1(CCOCC1)C2 [Example 44, 3-(1-ethyl-8-oxo-spiro[6,7-dihydro-4H-pyrazolo[3,4-c]azepine-5,4′-tetrahydropyran]-3-yl)propyl 5-chloro-2-methyl-benzoate] was run?
Answer: The IC50 was less than 0.1 µM.

Question: Which IC50 does the source give for CCn1nc(CCCOC(=O)c2ccc(S(=O)(=O)C3CCCC3)cc2)c2c1C(=O)NCC1(CCOCC1)C2 [Example 94, 3-(1-ethyl-8-oxo-spiro[6,7-dihydro-4H-pyrazolo[3,4-c]azepine-5,4′-tetrahydropyran]-3-yl)propyl 4-cyclopentylsulfonylbenzoate] here?
Answer: The IC50 was less than 0.1 µM.

Question: How did the IC50 turn out when CCn1nc(C[C@@H](C)COC(=O)c2cccc(OC)c2)c2c1C(=O)NCC1(CCOCC1)C2 [Example 150, [(2R)-3-(1-ethyl-8-oxo-spiro[6,7-dihydro-4H-pyrazolo[3,4-c]azepine-5,4′-tetrahydropyran]-3-yl)-2-methyl-propyl] 3-methoxybenzoate] was run?
Answer: Its IC50 is less than 0.1 µM.

Question: How did the IC50 turn out when CCn1nc(CCCOC(=O)c2ccc(OC)cc2)c2c1C(=O)NCC1(CCOCC1)C2 [Example 16, 3-(1-ethyl-8-oxo-spiro[6,7-dihydro-4H-pyrazolo[3,4-c]azepine-5,4′-tetrahydropyran]-3-yl)propyl 4-methoxybenzoate] was run?
Answer: Its IC50 is less than 0.1 µM.

Question: For CCn1nc(CCCOC(=O)c2cccc(S(=O)(=O)NC)c2)c2c1C(=O)NCC1(CCOCC1)C2 [Example 78, 3-(1-ethyl-8-oxo-spiro[6,7-dihydro-4H-pyrazolo[3,4-c]azepine-5,4′-tetrahydro-pyran]-3-yl)propyl 3-(methylsulfamoyl)benzoate], which IC50 is on record?
Answer: Its IC50 is less than 0.1 µM.

Question: CCn1nc(CC(C)(C)COC(=O)c2ccc(C(=O)N3CCOCC3)cc2)c2c1C(=O)NCC1(CCOCC1)C2 [Example 223, [3-(1-ethyl-8-oxo-spiro[6,7-dihydro-4H-pyrazolo[3,4-c]azepine-5,4′-tetrahydropyran]-3-yl)-2,2-dimethyl-propyl] 4-(morpholine-4-carbonyl)benzoate] was tested. Which IC50 did it give?
Answer: The IC50 was less than 0.1 µM.

Question: Which IC50 does the source give for CCn1nc(C[C@@H](C)COC(=O)c2ccc(C(N)=O)cc2)c2c1C(=O)NCC1(CCOCC1)C2 [Example 169, [(2R)-3-(1-ethyl-8-oxo-spiro[6,7-dihydro-4H-pyrazolo[3,4-c]azepine-5,4′-tetrahydropyran]-3-yl)-2-methyl-propyl] 4-carbamoylbenzoate] here?
Answer: Its IC50 is less than 0.1 µM.
